Legend:
Type in all cases: toxicity, cell-based
U2OS = experiment: Incucyte cell viability with U2OS; details: human, 10 µM, compound concentration 10 uM
HEK-293T = experiment: Incucyte cell viability with HEK293T; details: human, 10 µM, compound concentration 10 uM
Fibroblast = experiment: Incucyte cell viability with human fibroblast; details: 10 µM, compound concentration 10 uM
[1] = 0 h, replicate number 1, timepoint 0 hours
[2] = 6 h, replicate number 1, timepoint 6 hours
[3] = 6 h, replicate number 2, timepoint 6 hours
[4] = 12 h, replicate number 1, timepoint 12 hours
[5] = 12 h, replicate number 2, timepoint 12 hours
[6] = 18 h, replicate number 1, timepoint 18 hours
[7] = 18 h, replicate number 2, timepoint 18 hours
[8] = 24 h, replicate number 1, timepoint 24 hours
[9] = 0 h, replicate number 2, timepoint 0 hours
[10] = 24 h, replicate number 2, timepoint 24 hours
Note: filed as whole numbers so only -1 and 0 and 1 occur.

Row | SMILES | Growth Rate (U2OS; [1]) | Growth Rate (U2OS; [2]) | Growth Rate (U2OS; [3]) | Growth Rate (U2OS; [4]) | Growth Rate (U2OS; [6]) | Growth Rate (U2OS; [7]) | Growth Rate (U2OS; [8]) | Growth Rate (HEK-293T; [1]) | Growth Rate (HEK-293T; [9]) | Growth Rate (HEK-293T; [4]) | Growth Rate (HEK-293T; [6]) | Growth Rate (HEK-293T; [8]) | Growth Rate (Fibroblast; [2]) | Growth Rate (Fibroblast; [3]) | Growth Rate (Fibroblast; [4]) | Growth Rate (Fibroblast; [6]) | Growth Rate (Fibroblast; [7]) | Growth Rate (HEK-293T; [2]) | Growth Rate (Fibroblast; [1]) | Growth Rate (Fibroblast; [8]) | other results
1 | CC(C)(O)c1cncc(-c2nc3ccc(F)cc3n2C2CC2)c1 [MSD-CYP11B2] | 0 | 0 | 1 | 0 | 0 | 1 | 1 | 0 | 1 | 0 | 0 | 0 | 1 | 0 | 1 | 1 | 0 | – | – | – | Growth Rate (U2OS; [5]): 1; Growth Rate (HEK-293T; [7]): 1; Growth Rate (Fibroblast; [10]): 1
2 | N#CC1(c2ccccn2)CCN(Cc2cc(C(=O)O)c(=O)n3ccccc23)CC1 [MSD-M1PAM] | – | 0 | – | 0 | 0 | 1 | 0 | 1 | 0 | 1 | 1 | 1 | 0 | – | 0 | 0 | 1 | 1 | 0 | 0 | Growth Rate (U2OS; [9]): 1; Growth Rate (U2OS; [10]): 1; Growth Rate (HEK-293T; [10]): 0
3 | c1cc(CN2CCCNCCNCCCNCC2)ccc1CN1CCCNCCNCCCNCC1 [PLERIXAFOR] | – | 0 | – | 1 | 1 | 0 | 1 | 1 | 0 | 0 | 0 | 0 | 1 | 0 | 0 | 1 | 0 | 0 | 0 | 0 | Growth Rate (U2OS; [5]): 0; Growth Rate (U2OS; [10]): 0; Growth Rate (HEK-293T; [3]): 1; Growth Rate (Fibroblast; [9]): 1
4 | COc1ncc(F)cc1CNc1ccc(Cc2c[nH]c3ncc(C)cc23)c(F)n1 [PLX-5622] | – | 0 | – | 0 | 0 | – | 0 | 0 | 1 | 1 | 1 | 1 | 1 | 0 | 1 | 0 | 1 | 1 | – | 0 | Growth Rate (U2OS; [9]): 0; Growth Rate (HEK-293T; [10]): 0; Growth Rate (Fibroblast; [9]): 1; Growth Rate (Fibroblast; [5]): 0
5 | CC(C)NCC(O)COc1cccc2ccccc12.Cl (stereo not drawn) [PROPRANOLOL HYDROCHLORIDE] | 0 | 0 | – | 1 | 1 | – | 1 | – | 0 | 0 | 0 | 0 | 1 | 0 | 1 | 1 | 0 | 0 | 0 | 1 | Growth Rate (HEK-293T; [3]): 1; Growth Rate (Fibroblast; [5]): 0; Growth Rate (Fibroblast; [10]): 0
6 | NC(=O)[C@@H]1CCCN1C(=O)[C@H](Cc1cnc[nH]1)NC(=O)[C@@H]1CCC(=O)N1 [PROTIRELIN] | 0 | 1 | 0 | 0 | 0 | 1 | 0 | 0 | – | 1 | 1 | 1 | – | 0 | – | 1 | 0 | 1 | 0 | 1 | Growth Rate (HEK-293T; [10]): 0; Growth Rate (Fibroblast; [9]): 1; Growth Rate (Fibroblast; [5]): 1; Growth Rate (Fibroblast; [10]): 0
7 | CCN1CCC[C@H]1CNC(=O)c1c(OC)ccc(Br)c1OC [REMOXIPRIDE] | – | – | 1 | 0 | 0 | 1 | 0 | 0 | – | 1 | 1 | 1 | – | 0 | – | 1 | 0 | 1 | 0 | 1 | Growth Rate (U2OS; [5]): 1; Growth Rate (U2OS; [10]): 1; Growth Rate (Fibroblast; [5]): 0; Growth Rate (Fibroblast; [10]): 0
8 | CN(CCOc1ccc(CC2SC(=O)NC2=O)cc1)c1ccccn1 (stereo not drawn) [ROSIGLITAZONE] | 0 | 0 | 1 | 1 | 1 | – | 1 | 1 | 0 | 1 | 1 | 1 | – | 0 | 1 | 1 | 0 | 1 | 0 | 1 | Growth Rate (HEK-293T; [3]): 0; Growth Rate (HEK-293T; [5]): 0; Growth Rate (HEK-293T; [7]): 0; Growth Rate (HEK-293T; [10]): 0; Growth Rate (Fibroblast; [5]): 0
9 | Cc1cc(OCC(=O)O)cc(C)c1Cc1ccc(O)c(C(C)C)c1 [SOBETIROME] | – | – | 0 | 1 | 0 | 1 | 1 | 0 | – | 0 | 0 | 0 | -1 | 0 | – | 1 | – | 0 | 0 | 0 | Growth Rate (U2OS; [9]): 0; Growth Rate (HEK-293T; [7]): 1; Growth Rate (HEK-293T; [10]): 1; Growth Rate (Fibroblast; [5]): 0; Growth Rate (Fibroblast; [10]): 1
10 | O=C1c2ccc(Nc3ccc(F)cc3F)cc2CCc2ccc(OC[C@H](O)CO)cc21 [Skepinone-L] | 0 | 0 | – | 0 | 0 | 1 | 0 | – | – | – | – | 1 | 0 | – | 0 | 0 | – | 0 | – | 0 | –
11 | COc1cccc(CNC(=O)c2nc3scc(COCc4ccc(C(=O)O)cc4)c3c(=O)[nH]2)c1 [T-26c] | 0 | 1 | 0 | 1 | 1 | – | 1 | 0 | 1 | – | 1 | 1 | – | 0 | 1 | 1 | 0 | – | – | 1 | Growth Rate (U2OS; [5]): 0; Growth Rate (Fibroblast; [9]): 0; Growth Rate (Fibroblast; [5]): 0
12 | CCOC(=O)c1ccc(C#Cc2ccc3c(c2)C(C)(C)CCS3)nc1 [TAZAROTENE] | – | – | 1 | 0 | 0 | 1 | 0 | – | 0 | 0 | 0 | 0 | – | – | 1 | 1 | – | 0 | 0 | 0 | Growth Rate (U2OS; [9]): 0; Growth Rate (U2OS; [5]): 1; Growth Rate (U2OS; [10]): 1; Growth Rate (HEK-293T; [3]): 1
13 | Cc1ccc2[nH]c(CNCCCc3ccncc3)cc(=O)c2c1 [UCSF924NC] | – | 0 | – | 0 | 0 | 1 | 0 | 1 | 0 | 0 | 0 | 0 | 0 | – | 0 | 0 | – | 0 | 1 | 0 | Growth Rate (U2OS; [5]): 1; Growth Rate (HEK-293T; [3]): 1; Growth Rate (HEK-293T; [5]): 1; Growth Rate (HEK-293T; [7]): 1; Growth Rate (HEK-293T; [10]): 1
14 | CC[C@@H]1CN(C(=O)NCC(F)(F)F)C[C@@H]1c1cnc2cnc3[nH]ccc3n12 [UPADACITINIB] | 0 | 0 | – | 0 | 0 | – | 0 | 0 | – | – | – | – | 1 | – | 1 | 1 | – | – | 0 | 1 | Growth Rate (U2OS; [9]): 1; Growth Rate (U2OS; [5]): 1; Growth Rate (HEK-293T; [10]): 1
